Test results reported in US12617756B2 (ABIVAX, priority 2019, dated 2026).
pEC50: −log10 of the molar value.

The compounds below were run on RSV A2 (assay: Screening for RSV inhibition using Viral ToxGlo assay (cytopathic effect inhibition in HEp-2 cells)). Conditions: human respiratory syncytial virus; RSV A2 in HEp-2 cells, MOI 0.5, 72h p.i., cytopathic effect inhibition relative to virus control, Viral ToxGlo luminescence.
Format: cell-based, Respiratory Syncytial Virus (RSV)
Description: Protocol for Screening Antiviral Compounds for RSV Inhibition and Cytotoxicity Using Viral ToxGlo Assay
HEp-2 cells were maintained in Eagle's minimum essential medium (EMEM) with Earle's BSS adjusted to contain 2 mM L-glutamine, 10% fetal bovine serum, 100 U/ml penicillin and 100 µg/ml streptomycin. For the purposes of the screening assay they were grown to 90% confluency, trypsinized and recovered. The trypsin was neutralised with cell culture media and cells were centrifuged at 150×g for 5 minutes before discarding the supernatant and resuspending cell pellet in assay media (EMEM with Earle's BSS adjusted to contain 2 mM L-glutamine, 2% fetal bovine serum and 100 U/ml penicillin and 100 µg/ml streptomycin). The cells were seeded into white clear-bottomed cell culture plates at a density of 1.5×10^4 cells/well in 50 μl and 4×10^3 cells/well in 25 μl for 96 well plates and 384 well plates respectively. For the media/background control column assay media only was added. Cell plates were placed in a humid chamber and incubated overnight at 37° C./5% CO2. After overnight incubation cells were checked for confluency and healthy appearance.
Test articles were made up at 10× test concentration in a maximum DMSO concentration of 10% (final assay concentration maximal 1% DMSO) and added to the cell plates in volumes of […] for 96 well plates and 5 μl for 384 well plates. For cell control and virus control wells the test article solvent only was added. Virus or assay media for cytotoxicity test wells and media/cell control wells was added immediately after test articles at an MOI of […] for 96 and 384 well plates respectively. Virus suspension was prepared by thawing RSV A2 frozen stocks and diluting to the required concentration of plaque forming units in assay media on ice.
Cell plates were further incubated inside a humid chamber for 72h p.i at 37° C./5% CO2. After the incubation period cells were observed under the microscope to check for characteristic cytopathic effect in virus control wells and healthy cells in the cell control wells. After plates were adjusted to room temperature 20/40 μl Viral ToxGlo (Promega) was added to each well of the 384/96 well cell plates. Plates were incubated at room temperature, protected from light on a plate rocker for 20 minutes before measuring the luminescence on a spectrophotometer (Biotek Synergy HTX).
`CC(C)C1(NC(=O)c2cccc(Nc3ccc(C(=O)N=C4NCCN4)cc3C3CC3)c2)CC1` [Compound 7] showed a pEC50 of 8.80. In the case of `CC1(NC(=O)c2cccc(Nc3ccc(C(=O)N=C4NCCN4)cc3C3CC3)c2)CC1` [Compound 14, 3-cyclopropyl-N-[(2Z)-imidazolidin-2-ylidene]-4-({3-[(1-methylcyclopropyl)carbamoyl]phenyl}amino)benzamide], the pEC50 was 7.84. Compound `O=C(N=C1NCCN1)c1ccc(Nc2cccc(C(=O)N3CCOCC3)c2Cl)c(C2CCOC2)c1` (centres unmarked) [Compound 15, 4-{[2-chloro-3-(morpholine-4-carbonyl)phenyl]amino}-N-[(2E)-imidazolidin-2-ylidene]-3-(oxolan-3-yl)benzamide] has a pEC50 of 7.83. `O=C(N=C1NCCN1)c1ccc(Nc2cccc(C(=O)N3CCOCC3)c2Cl)c(C(F)(F)F)c1` [Compound 16, 4-{[2-chloro-3-(morpholine-4-carbonyl)phenyl]amino}-N-[(2E)-imidazolidin-2-ylidene]-3-(trifluoromethyl)benzamide] was tested, and the pEC50 was 7.81. `CC(C)NC(=O)c1cccc(Nc2ccc(C(=O)/N=C3\NCCN3C)cc2C(C)(C)C)c1` [Compound 17, 3-tert-butyl-N-[(2E)-1-methylimidazolidin-2-ylidene]-4-({3-[(propan-2-yl)carbamoyl]phenyl}amino)benzamide] gave a pEC50 of 7.70. With `CC1(NC(=O)c2cccc(Nc3ccc(C(=O)N=C4NCCN4)cc3C3CCC3)c2)CC1` [Compound 18, 3-cyclobutyl-N-[(2Z)-imidazolidin-2-ylidene]-4-({3-[(1-methylcyclopropyl)carbamoyl]phenyl}amino)benzamide] the pEC50 was 7.67. For `CC(C)NC(=O)c1cccc(Nc2ccc(C(=O)N=C3NCCN3)cc2C(C)(C)C)c1` [Compound 19, 3-tert-butyl-N-[(2E)-imidazolidin-2-ylidene]-4-({3-[(propan-2-yl)carbamoyl]phenyl}amino)benzamide], the pEC50 was 7.64. With `CC(C)(C)C(=O)Nc1cccc(Nc2ccc(C(=O)N=C3NCCN3)cc2C(C)(C)C)c1` [Compound 20, 3-tert-butyl-4-{[3-(2,2-dimethylpropanamido)phenyl]amino}-N-[(2Z)-imidazolidin-2-ylidene]benzamide] the pEC50 was 7.63. In the case of `CC1(C(=O)Nc2cccc(Nc3ccc(C(=O)N=C4NCCN4)cc3C3CC3)c2)CC1` [Compound 21, 3-cyclopropyl-N-[(2Z)-imidazolidin-2-ylidene]-4-{[3-(1-methylcyclopropaneamido)phenyl]amino}benzamide], the pEC50 was 7.59. With `O=C(N=C1NCCN1)c1ccc(Nc2cccc(OCCCC3CCCCC3)c2)c(C2CC2)c1` [Compound 22, 4-{[3-(3-cyclohexylpropoxy)phenyl]amino}-3-cyclopropyl-N-[(2E)-imidazolidin-2-ylidene]benzamide] the pEC50 was 7.59. Compound `O=C(N=C1NCCN1)c1ccc(Nc2cccc(OCC3COCCO3)c2Cl)c(C2CC2)c1` (centres unmarked) [Compound 23, 4-({2-chloro-3-[(1,4-dioxan-2-yl)methoxy]phenyl}amino)-3-cyclopropyl-N-[(2E)-imidazolidin-2-ylidene]benzamide] has a pEC50 of 7.52. For `CN1CCN/C1=N\C(=O)c1ccc(Nc2cccc(C(=O)NC3(C)CC3)c2)c(C(C)(C)C)c1` [Compound 24, 3-tert-butyl-4-({3-[(1-methylcyclopropyl)carbamoyl]phenyl}amino)-N-[(2E)-1-methylimidazolidin-2-ylidene]benzamide], the pEC50 was 7.50. For `O=C(N=C1NCCN1)c1ccc(Nc2cccc(C(=O)NC3CC3)c2Cl)c(C2CC2)c1` [Compound 25, 4-{[2-chloro-3-(cyclopropylcarbamoyl)phenyl]amino}-3-cyclopropyl-N-[(2Z)-imidazolidin-2-ylidene]benzamide], the pEC50 was 7.49. Work on `CC(C)C(=O)Nc1cccc(Nc2ccc(C(=O)N=C3NCCN3)cc2C2CC2)c1` [Compound 26, 3-cyclopropyl-N-[(2E)-imidazolidin-2-ylidene]-4-{[3-(2-methylpropanamido)phenyl]amino}benzamide] yielded a pEC50 of 7.46.
